Source: patent US8084605B2, “Polymorphs of succinate salt of 2-[6-(3-amino-piperidin-1-yl)-3-methyl-2,4-dioxo-3,4-dihydro-2H-pyrimidin-1-ylmethy]-4-fluor-benzonitrile and methods of use therefor” (priority 2006, dated 2011)

Key:
Type in all cases: physicochemical
[1] = Relative humidity stressing experiments (form by XRPD); conditions: for Form by XRPD after relative humidity stressing: 29 days
Text: Samples of Compound I were placed uncovered in approximately 58%, 88%, and 97% relative humidity jars. The samples were stored in the jars for approximately 8 days. The solids were collected and analyzed by XRPD for form identification. Aliquots of Form A of Compound I were stored under approximately 50% and 97% relative humidity for 29 days. An aliquot of a mixture of Form A+B was stressed at 88% relative humidity for 23 days. Amorphous Form was stressed at 58% and 88% relative humidity for 23 days.

[2] = Moisture sorption/desorption analysis
Experimental: Moisture sorption/desorption data were collected on a VTI SGA-100 Vapor Sorption Analyzer. Sorption and desorption data were collected over a range of 5% to 95% relative humidity (RH) at 10% RH intervals under a nitrogen purge. Samples were not dried prior to analysis. Equilibrium criteria used for analysis were less than 0.0100% weight change in 5 minutes, with a maximum equilibration time of 3 hours if the weight criterion was not met. Data were not corrected for the initial moisture content of the samples. NaCl and PVP were used as calibration standards. Moisture sorption and desorption study was conducted on a sample of Form A+B. The sample was prepared by crashed cooling crystallization (Example 3, section A.6) of the polymorphic forms from a ethanol:water (95:5) solution of Compound I. The moisture sorption and desorption study was conducted according to the procedures outlined in Example 3, section B. 10. The data collected is plotted in FIG. 13 and summarized in Table L. Moisture sorption and desorption study was conducted on a sample of Form E. The sample was prepared by solvent/antisolvent crystallization (Example 3, section A.7) by the addition of acetonitrile to Compound I in water. The moisture sorption and desorption study was conducted according to the procedures outlined in Example 3, section B. 10. The data collected is plotted in FIG. 23 and summarized in Table M. Moisture sorption and desorption study was conducted on a sample of Amorphous Form. The sample was prepared by lyophilolization of a solution of Compound I in water (Example 3, section A.9). The moisture sorption and desorption study was conducted according to the procedures outlined in Example 3, section B. 10.

[3] = Approximate solubility of Compound I in different solvents; conditions: most solvents, with the exceptions of DMF, methanol, TFE, water and water:solvent mixtures
Experimental: Compound I prepared by the method described in Example 1 was used for the solubility study. Solvents and other reagents were of ACS or HPLC grade and were used as received.
A weighed sample (typically about 20-25 mg) of Compound I was treated at ambient temperature with aliquots (typically ≧50 μL) of the test solvent with sonication between additions. Solvents were either reagent or HPLC grade. Solubility was estimated from the total volume of solvent used to obtain a clear solution, as determined by visual inspection. Solubility is expressed as “less than” when dissolution was not observed. If dissolution occurred after the last aliquot was added then solubility is expressed as “greater than or equal to” (≧). The actual solubilities may be greater than determined, due to over addition of solvent (large aliquots) or slow dissolution rates. Approximate solubilities of Compound I are summarized in Table A. The solubility values have been rounded to the nearest whole number and are reported to the nearest mg/mL.

SMILES: Cn1c(=O)cc(N2CCC[C@@H](N)C2)n(Cc2cc(F)ccc2C#N)c1=O.O=C(O)CCC(=O)O [Form A]
- Stability (conclusion from characterization data) ([1]; ambient conditions): stable at ambient conditions
- Form by XRPD after relative humidity stressing ([1]; approximately 50% and 97% relative humidity): Form A
- Form by XRPD after relative humidity stressing ([1]; approximately 58% and 97% relative humidity): did not exhibit form changes

SMILES: Cn1c(=O)cc(N2CCC[C@@H](N)C2)n(Cc2cc(F)ccc2C#N)c1=O [Compound I, 2-[6-(3-amino-piperidin-1-yl)-3-methyl-2,4-dioxo-3,4-dihydro-2H-pyrimidin-1-ylmethyl]-4-fluoro-benzonitrile succinate]
- XRPD Form post MB ([2]; lyophilized sample from H2O solution): low crystallinity A
- XRPD Form post MB ([2]; sample crystallized from H2O/ACN): A + small quantity of E
- XRPD Form post MB ([2]; sample prepared by CC from EtOH:H2O (95:5)): A + B
- Solubility (in words) [3]: Poor solubility

SMILES: Cn1c(=O)cc(N2CCC[C@@H](N)C2)n(Cc2ccccc2C#N)c1=O.O=C(O)CCC(=O)O [Amorphous Form]
- Weight lost during sorption ([2]; at 75% relative humidity): Approximately 7%
